Assay results: ChEMBL document CHEMBL5143580, “Ophiorrhines F and G, Key Biogenetic Intermediates of Ophiorrhine Alkaloids from Ophiorrhiza japonica and Their Immunosuppressant Activities” (J Nat Prod, 2022)

What was measured:
[1] = Cytotoxicity in BALB/c mouse Splenocyte assessed as reduction in cell viability incubated for 48 hrs by CCK-8 assay; assay type: toxicity, cell-based; settings: splenocytes
Splenocyte [2] = assay: Immunosuppressive activity in BALB/c mouse Splenocyte assessed as inhibition of concanavalin A induced T-cell proliferation by [3H]-thymidine incorporation based beta scintillation counter analysis; assay type: functional
Splenocyte [3] = assay: Immunosuppressive activity in BALB/c mouse Splenocyte assessed as inhibition of LPS induced B-cell proliferation by [3H]-thymidine incorporation based beta scintillation counter analysis; assay type: functional
[4] = Selectivity index, ratio of CC50 for BALB/c mouse Splenocyte to IC50 for Immunosuppressive activity in BALB/c mouse Splenocyte assessed as inhibition of concanavalin A-induced T-cell proliferation; assay type: toxicity; settings: splenocytes, read-out: Ratio CC50/IC50
[5] = Selectivity index, ratio of CC50 for BALB/c mouse Splenocyte to IC50 for Immunosuppressive activity in BALB/c mouse Splenocyte assessed as inhibition of LPS-induced B-cell proliferation; assay type: toxicity; settings: splenocytes, read-out: Ratio CC50/IC50

Row | SMILES | CC50 at 48 h [1] | IC50 (Splenocyte [2]) | IC50 (Splenocyte [3]) | selectivity ratio [4] | selectivity ratio [5]
1 | C=C[C@H]1[C@H](O[C@@H]2O[C@H](CO)[C@@H](O)[C@H](O)[C@H]2O)OC=C(C(=O)OC)[C@H]1CC(=O)c1[nH]c2ccccc2c1[C@H](OC)C(=O)NC | 208 µM | > 200 µM | < 0.38 µM | < 1.04 | > 548
2 | C=C[C@H]1[C@H](O[C@@H]2O[C@H](CO)[C@@H](O)[C@H](O)[C@H]2O)OC=C(C(=O)OC)[C@H]1CC(=O)c1[nH]c2ccccc2c1CC(=O)NC | 170 µM | > 200 µM | 47.4 µM | < 0.85 | 3.59
